Read-outs that look alike come from different tables or passages of the source.
Key:
[1] = target: T1, human dihydroorotate dehydrogenase (HsDHODH) (Homo sapiens, UniProt Q02127); assay: Inhibition of recombinant human DHODH enzyme activity; type: biochemical; conditions: for IC50: recombinant human DHODH; for inhibition at 1 µM: at 1,000 nM, read-out: Inhibition of HsDHODH activity (value in parentheses); for fold increase in the IC50 in comparison to 3: HsDHODH IC50 versus compound 3
T1 construct: made in house
T1 sequence (Q02127 whole entry): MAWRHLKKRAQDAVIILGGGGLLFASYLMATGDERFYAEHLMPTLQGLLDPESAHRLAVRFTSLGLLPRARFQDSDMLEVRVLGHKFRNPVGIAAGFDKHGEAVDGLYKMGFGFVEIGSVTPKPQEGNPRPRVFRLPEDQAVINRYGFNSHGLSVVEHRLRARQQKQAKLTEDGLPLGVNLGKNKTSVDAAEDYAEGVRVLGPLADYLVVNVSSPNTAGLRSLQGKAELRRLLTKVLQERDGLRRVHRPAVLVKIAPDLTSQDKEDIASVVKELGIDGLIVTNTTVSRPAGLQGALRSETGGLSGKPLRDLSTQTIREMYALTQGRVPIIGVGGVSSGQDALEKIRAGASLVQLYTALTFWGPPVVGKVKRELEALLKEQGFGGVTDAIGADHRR

DLD-1 cells = assay: Cytotoxicity assay (Cell Counting Kit-8 / WST-8) on DLD-1 cells; type: cell-based, human; conditions: at higher concentrations (100 μM); Supplementary Figure S7
Procedure: For hypoxia and nutrient-deprived culture conditions, cells were incubated under 1% oxygen in glucose and glutamine-free DMEM (Gibco) without FBS.
DLD-1 or HDF cells were seeded at 2.5 × 10^4 cells/well on a 96-well plate with normal medium, and cultured overnight under normal culture condition. The cells were washed with PBS and the medium was replaced to either normal medium or glucose and glutamine-free DMEM without FBS. Test compounds or DMSO as a control were added to the wells. The cells in normal medium were cultured under normal culture conditions, while cells in nutrient-deprived medium were cultured under hypoxia condition. After 24 or 48 h incubation, the cells were washed with PBS, 100 μl of fresh normal medium, and 10 μl of Cell Counting Kit-8 solution (Donjindo, Japan) was added to each well. After 3 h incubation under normal culture condition, the absorbance was measured at 450 nm using SpectraMax M2e-TUY microplate reader (Molecular Devices). Cell viability of test wells was calculated based on absorbance of control wells containing DMSO according to manufacturer’s protocol.

Complexes I–III = assay: NADH-cytochrome c reductase (complexes I–III) activity, bovine mitochondria; type: biochemical
Procedure: (§1) Recombinant human DHODH was purified, crystallized, and assayed as previously described ([Inaoka et al., 2016]) without modification. Bovine mitochondrial fractions were prepared as previously described ([Kita et al., 1988]) and NADH dehydrogenase (complex I), succinate:quinone reductase (complex II), quinol oxidase (complexes III–IV), NADH-cytochrome c reductase (complexes I–III), and succinate-cytochrome c (complexes II–III) activities were assayed following an established method ([Takamiya et al., 1986]; [Miyadera et al., 2001]; [Matsumoto et al., 2008]; [Kido et al., 2010]; [Nihashi et al., 2017]).

Complex II = target: T2, Complex II (Bos taurus, UniProt P35720+Q3T189+Q95123); assay: Succinate:quinone reductase (complex II) activity, bovine mitochondria; type: biochemical
T2 construct: from tissue; host or cells: bovine mitochondrial fraction / sub-mitochondrial particles
T2 sequence (P31039 45-665 partner limits assumed): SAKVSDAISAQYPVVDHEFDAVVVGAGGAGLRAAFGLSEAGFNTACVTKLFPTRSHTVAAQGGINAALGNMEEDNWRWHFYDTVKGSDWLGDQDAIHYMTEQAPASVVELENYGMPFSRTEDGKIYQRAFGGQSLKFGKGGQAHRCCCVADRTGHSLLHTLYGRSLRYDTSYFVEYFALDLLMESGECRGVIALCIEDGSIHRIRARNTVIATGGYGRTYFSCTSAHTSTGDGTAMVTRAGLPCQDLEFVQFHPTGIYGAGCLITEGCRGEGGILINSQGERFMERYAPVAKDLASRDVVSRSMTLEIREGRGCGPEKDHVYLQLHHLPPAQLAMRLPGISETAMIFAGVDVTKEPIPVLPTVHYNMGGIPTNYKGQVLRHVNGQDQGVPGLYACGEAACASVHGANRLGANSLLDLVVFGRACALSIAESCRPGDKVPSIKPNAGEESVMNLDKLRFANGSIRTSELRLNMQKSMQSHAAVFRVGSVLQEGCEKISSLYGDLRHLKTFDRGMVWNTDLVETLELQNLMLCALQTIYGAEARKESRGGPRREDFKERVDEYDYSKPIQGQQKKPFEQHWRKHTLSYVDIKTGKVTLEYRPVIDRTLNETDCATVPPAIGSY
T2 sequence (Q3T189 29-280): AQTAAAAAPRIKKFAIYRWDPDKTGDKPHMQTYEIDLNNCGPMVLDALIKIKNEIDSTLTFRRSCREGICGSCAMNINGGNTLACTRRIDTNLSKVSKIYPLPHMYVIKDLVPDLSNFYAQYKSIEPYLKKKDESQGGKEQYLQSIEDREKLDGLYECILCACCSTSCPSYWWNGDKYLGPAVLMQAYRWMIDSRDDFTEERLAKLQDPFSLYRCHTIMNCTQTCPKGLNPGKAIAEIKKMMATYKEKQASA
T2 sequence (P35720 30-169): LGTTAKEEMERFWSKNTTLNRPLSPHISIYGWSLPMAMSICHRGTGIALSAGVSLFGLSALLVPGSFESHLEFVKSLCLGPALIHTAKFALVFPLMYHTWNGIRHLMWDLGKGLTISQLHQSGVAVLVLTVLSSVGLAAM
T2 sequence (Q95123 56-158): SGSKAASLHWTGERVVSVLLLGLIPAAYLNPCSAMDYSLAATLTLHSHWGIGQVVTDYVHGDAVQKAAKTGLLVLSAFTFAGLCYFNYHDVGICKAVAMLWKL

Complex I = assay: NADH dehydrogenase (complex I) activity, bovine mitochondria; type: biochemical; conditions: at 5 μM
Procedure: as §1

Complex II–III = assay: Succinate-cytochrome c reductase (complexes II–III) activity, bovine mitochondria; type: biochemical
Procedure: as §1

Complex III = target: T3, Complex III (Bos taurus, UniProt P00157); assay: Quinol oxidase (complex III) activity, bovine mitochondria; type: biochemical; conditions: ubiquinol oxidase activity
T3 construct: from tissue; host or cells: bovine mitochondrial fraction / sub-mitochondrial particles

[2] = purified enzyme fixed at 10 nM, read-out: IC50 (nM), inhibition of human DHODH

Row | IC50 [1, 2] [nM] | inhibition at 1 µM [1] [%] | Compound | other results
1 | 71.4 ± 2.4 | – | CCCCC/C(C)=C/Cc1c(O)c(Cl)c(C)c(C=O)c1O [Compound 17] | –
2 | > 1000 | 37 | CCCCCC(C)CCc1c(O)c(Cl)c(C)c(C=O)c1O (stereo not shown) [Compound 18] | –
3 | > 1000 | 3 | CC(=O)c1c(C)c(Cl)c(O)c(C/C=C(\C)CC/C=C(\C)C2CC(=O)C(C)(C)O2)c1O (stereo not shown) [Compound 19] | HsDHODH inhibition activity (in words) [1]: lost
4 | 3530 | – | C/C(=C\Cc1c(O)c(Cl)c(C)c(CO)c1O)CC/C=C(\C)COC(=O)C(C)(C)C [Compound 20] | –
5 | > 1000 | 3 | COc1c(Cl)c(C)c(C=O)c(O)c1C/C=C(\C)CC/C=C(\C)[C@@H]1CC(=O)C(C)(C)O1 [Compound 21] | –
6 | > 1000 | 20 | CC(C)=CCC/C(C)=C/Cc1c(O)cc(C)c(C=O)c1O [Compound 22, Colletorin B] | fold increase in the IC50 in comparison to 3 [1]: > 13 fold
7 | > 1000 | 36 | CC(C)=CCC/C(C)=C/Cc1c(O)c(Cl)cc(C=O)c1O [Compound 24] | fold increase in the IC50 in comparison to 3 [1]: > 13 fold
8 | – | – | C/C(O)=C(\C#N)C(=O)Nc1ccc(C(F)(F)F)cc1 [Compound A771726, teriflunomide, reference compound] | effect on DLD-1 under hypoxia/nutrient-deprived conditions (in words) (DLD-1 cells): specific inhibition under hypoxia/nutrient-deprived condition was observed
9 | – | – | C=C(C)[C@H]1Cc2c(ccc3c2O[C@@H]2COc4cc(OC)c(OC)cc4[C@@H]2C3=O)O1 [Rotenone, reference compound] | IC50 (Complexes I–III): 0.0063 ± 0.0001 µM; inhibition at 5 µM (Complex II): 6.4 ± 7.9%; IC50 ([1]; IC50 (μM) HsDHODH, Table 6): > 10000 nM; Inhibition (%) Complex I (Complex I): 94 ± 1.5%; IC50 (Complex II–III): > 10 µM; inhibition at 5 µM (Complex III): 1.1 ± 2.8%

Source: PMC6131557, “Selective Cytotoxicity of Dihydroorotate Dehydrogenase Inhibitors to Human Cancer Cells Under Hypoxia and Nutrient-Deprived Conditions” (Frontiers in Pharmacology, 2018)
